# Peptide text beside a SMILES is read from it.
# Tests used:
# Experiment in all cases: biochemical
# Format in all cases: binding, BALB/c mouse
# H2-L^d = H2-L^d (Mus musculus, UniProt P01897)
# H2-K^d = H2-K^d (Mus musculus, UniProt P01902)
# H2-D^d = H2-D^d (Mus musculus, UniProt P01900)
# I-E^d = target: T1, I-E^d (Mus musculus, UniProt P01904+P01915)
# T1 sequence (P01904 26-255): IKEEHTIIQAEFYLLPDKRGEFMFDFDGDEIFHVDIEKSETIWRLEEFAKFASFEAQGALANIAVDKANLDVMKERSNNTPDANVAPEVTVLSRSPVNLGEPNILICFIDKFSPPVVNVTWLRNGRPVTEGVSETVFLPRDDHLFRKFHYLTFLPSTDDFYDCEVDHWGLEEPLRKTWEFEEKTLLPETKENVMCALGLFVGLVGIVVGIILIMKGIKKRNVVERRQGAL
# T1 sequence (P01915 27-264 limits assumed): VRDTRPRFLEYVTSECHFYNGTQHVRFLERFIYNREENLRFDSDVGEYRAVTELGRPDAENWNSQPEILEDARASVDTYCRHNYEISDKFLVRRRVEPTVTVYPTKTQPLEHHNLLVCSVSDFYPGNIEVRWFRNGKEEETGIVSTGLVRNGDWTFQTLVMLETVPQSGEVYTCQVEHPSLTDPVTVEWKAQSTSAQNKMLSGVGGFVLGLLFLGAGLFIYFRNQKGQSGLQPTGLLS
# I-A^d = target: T2, I-A^d (Mus musculus, UniProt P01921+P04228); settings: Binding Assay IC50, I-A^d (membrane 15mers)
# T2 sequence (P04228 24-256): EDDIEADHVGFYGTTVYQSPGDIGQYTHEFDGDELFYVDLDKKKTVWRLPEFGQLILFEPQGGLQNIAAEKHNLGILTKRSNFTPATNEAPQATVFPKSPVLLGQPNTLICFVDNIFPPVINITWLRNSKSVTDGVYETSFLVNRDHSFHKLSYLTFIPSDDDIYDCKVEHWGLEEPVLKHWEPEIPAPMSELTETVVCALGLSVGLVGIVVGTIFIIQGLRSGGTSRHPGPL
# T2 sequence (P01921 28-265): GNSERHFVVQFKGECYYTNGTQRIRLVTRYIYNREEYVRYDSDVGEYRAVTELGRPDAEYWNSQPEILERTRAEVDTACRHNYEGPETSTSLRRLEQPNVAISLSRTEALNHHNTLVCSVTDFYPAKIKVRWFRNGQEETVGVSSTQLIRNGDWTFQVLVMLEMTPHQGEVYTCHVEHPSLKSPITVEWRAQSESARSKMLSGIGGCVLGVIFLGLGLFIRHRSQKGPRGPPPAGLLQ
# Sequence of H2-D^d (P01900 25-365): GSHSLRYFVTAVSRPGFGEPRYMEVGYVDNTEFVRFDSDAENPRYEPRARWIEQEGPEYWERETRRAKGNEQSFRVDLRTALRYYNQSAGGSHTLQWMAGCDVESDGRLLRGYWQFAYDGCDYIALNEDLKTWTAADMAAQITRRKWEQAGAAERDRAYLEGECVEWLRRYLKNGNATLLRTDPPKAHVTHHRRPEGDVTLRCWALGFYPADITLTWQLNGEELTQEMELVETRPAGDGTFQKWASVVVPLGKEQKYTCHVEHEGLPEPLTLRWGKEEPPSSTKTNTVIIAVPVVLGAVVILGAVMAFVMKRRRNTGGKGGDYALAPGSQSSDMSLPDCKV
# Sequence of H2-D^d (P61769 21-119 partner): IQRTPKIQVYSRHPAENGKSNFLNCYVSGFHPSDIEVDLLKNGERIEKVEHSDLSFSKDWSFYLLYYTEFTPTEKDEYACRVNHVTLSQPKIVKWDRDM
# Sequence of H2-L^d (P01897 25-362): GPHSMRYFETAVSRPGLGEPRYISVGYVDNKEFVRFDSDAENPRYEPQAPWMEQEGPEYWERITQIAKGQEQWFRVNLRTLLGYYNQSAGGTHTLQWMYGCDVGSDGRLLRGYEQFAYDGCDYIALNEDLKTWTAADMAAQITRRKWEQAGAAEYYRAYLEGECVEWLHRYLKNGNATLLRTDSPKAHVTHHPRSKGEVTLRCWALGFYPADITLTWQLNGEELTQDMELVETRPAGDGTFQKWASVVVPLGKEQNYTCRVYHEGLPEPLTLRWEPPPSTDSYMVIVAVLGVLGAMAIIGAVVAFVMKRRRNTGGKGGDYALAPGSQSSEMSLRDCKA
# Sequence of H2-L^d (P61769 21-119 partner): as the sequence (P61769 21-119 partner) above
# Sequence of H2-K^d (P01902 22-368): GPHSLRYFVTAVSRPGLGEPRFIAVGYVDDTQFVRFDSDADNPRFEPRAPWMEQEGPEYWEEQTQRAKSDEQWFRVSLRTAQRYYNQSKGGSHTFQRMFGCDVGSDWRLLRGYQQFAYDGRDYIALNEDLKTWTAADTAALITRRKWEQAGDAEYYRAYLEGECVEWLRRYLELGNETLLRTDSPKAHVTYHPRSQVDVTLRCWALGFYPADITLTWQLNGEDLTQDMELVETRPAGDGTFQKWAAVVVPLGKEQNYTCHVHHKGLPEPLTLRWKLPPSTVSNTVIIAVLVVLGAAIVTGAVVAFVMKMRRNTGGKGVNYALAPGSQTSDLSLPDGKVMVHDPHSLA
# Sequence of H2-K^d (P61769 21-119 partner): as the sequence (P61769 21-119 partner) above
Compound,IC50 (H2-L^d) [µM],IC50 (H2-K^d) [µM],IC50 (H2-D^d) [µM],IC50 (I-E^d) [µM],IC50 (I-A^d) [µM]
CC[C@H](C)[C@H](NC(=O)[C@@H](NC(=O)[C@@H]1CCCN1)C(C)C)C(=O)N[C@H](C(=O)N[C@@H](C)C(=O)N[C@@H](CC(=O)O)C(=O)N[C@@H](CC(=O)O)C(=O)N[C@@H](CC(C)C)C(=O)N[C@H](C(=O)O)[C@@H](C)O)C(C)C [E333–341] (H-PVIVADDLT-OH),3.72,> 70,> 70,–,–
CC[C@H](C)[C@H](NC(=O)[C@H](CCCCN)NC(=O)[C@@H](NC(=O)[C@H](Cc1c[nH]cn1)NC(=O)[C@@H](NC(=O)[C@H](CC(C)C)NC(=O)[C@@H](NC(=O)[C@H](C)NC(=O)[C@@H](N)CC(N)=O)C(C)C)[C@@H](C)O)C(C)C)C(=O)O [E62–70] (H-NAVLTHVKI-OH),> 70,1.54,> 70,–,–
CC(C)C[C@H](NC(=O)[C@@H](NC(=O)[C@H](C)NC(=O)[C@H](CC(N)=O)NC(=O)[C@@H](N)Cc1ccc(O)cc1)C(C)C)C(=O)N[C@H](C(=O)N[C@@H](Cc1c[nH]cn1)C(=O)N[C@H](C(=O)N[C@@H](CCCCN)C(=O)O)C(C)C)[C@@H](C)O [E61–69] (H-YNAVLTHVK-OH),> 70,0.093,> 70,–,–
CC[C@H](C)[C@H](NC(=O)[C@@H](N)C(C)C)C(=O)N[C@H](C(=O)N[C@@H](C)C(=O)N[C@@H](CC(=O)O)C(=O)N[C@@H](CC(=O)O)C(=O)N[C@@H](CC(C)C)C(=O)N[C@H](C(=O)N[C@@H](C)C(=O)O)[C@@H](C)O)C(C)C [E334–342] (H-VIVADDLTA-OH),19.2,> 70,> 70,–,–
CC[C@H](C)[C@H](N)C(=O)N[C@H](C(=O)N[C@@H](C)C(=O)N[C@@H](CC(=O)O)C(=O)N[C@@H](CC(=O)O)C(=O)N[C@@H](CC(C)C)C(=O)N[C@H](C(=O)N[C@@H](C)C(=O)N[C@@H](C)C(=O)O)[C@@H](C)O)C(C)C [E335–343] (H-IVADDLTAA-OH),38,> 70,> 70,–,–
CC(C)C[C@H](NC(=O)[C@@H](NC(=O)[C@H](C)NC(=O)[C@H](CC(N)=O)NC(=O)[C@H](Cc1ccc(O)cc1)NC(=O)[C@H](CS)NC(=O)[C@@H](NC(=O)[C@H](CCCCN)NC(=O)[C@@H](N)CCCNC(=N)N)C(C)C)C(C)C)C(=O)O [E57–65],39.4,> 70,> 70,–,–
CC(C)C[C@H](NC(=O)[C@@H](NC(=O)[C@H](C)NC(=O)[C@H](CC(N)=O)NC(=O)[C@H](Cc1ccc(O)cc1)NC(=O)[C@H](CS)NC(=O)[C@@H](N)C(C)C)C(C)C)C(=O)N[C@H](C(=O)N[C@@H](Cc1c[nH]cn1)C(=O)O)[C@@H](C)O [E59–67] (H-VCYNAVLTH-OH),55.4,0.211,> 70,–,–
CC[C@H](C)[C@H](NC(=O)[C@@H](NC(=O)[C@@H]1CCCN1C(=O)[C@@H](NC(=O)[C@H](CCCNC(=N)N)NC(=O)[C@@H](N)CS)[C@@H](C)CC)C(C)C)C(=O)N[C@H](C(=O)N[C@@H](C)C(=O)N[C@@H](CC(=O)O)C(=O)O)C(C)C [E330–338] (H-CRIPVIVAD-OH),54.2,0.915,> 70,–,–
CC[C@H](C)[C@H](NC(=O)[C@H](CCCCN)NC(=O)[C@@H](NC(=O)[C@H](Cc1c[nH]cn1)NC(=O)[C@@H](NC(=O)[C@H](CC(C)C)NC(=O)[C@@H](NC(=O)[C@H](C)N)C(C)C)[C@@H](C)O)C(C)C)C(=O)N[C@@H](CC(N)=O)C(=O)O [E63–71] (H-AVLTHVKIN-OH),20.7,54.7,> 70,–,–
CC[C@H](C)[C@H](NC(=O)[C@@H](NC(=O)[C@@H](NC(=O)[C@H](CCCNC(=N)N)NC(=O)[C@H](CCC(N)=O)NC(=O)[C@@H](NC(=O)[C@H](CCSC)NC(=O)[C@H](CC(N)=O)NC(=O)[C@H](CO)NC(=O)CNC(=O)[C@@H](N)C(C)C)[C@@H](C)O)C(C)C)C(C)C)C(=O)N[C@@H](C)C(=O)N[C@@H](CC(C)C)C(=O)N[C@@H](CC(C)C)C(=O)N[C@H](C(=O)O)C(C)C [M53–67],–,–,–,32.3,0.03
CC(C)C[C@H](NC(=O)CNC(=O)[C@H](Cc1c[nH]cn1)NC(=O)[C@H](CC(N)=O)NC(=O)[C@H](CCC(=O)O)NC(=O)[C@H](Cc1c[nH]cn1)NC(=O)[C@@H](NC(=O)[C@@H]1CCCN1)[C@@H](C)O)C(=O)N[C@@H](CCCCN)C(=O)N[C@H](C(=O)N[C@@H](CCCNC(=N)N)C(=O)N[C@@H](CCC(N)=O)C(=O)N[C@@H](CCC(=O)O)C(=O)N[C@@H](CCCCN)C(=O)N[C@@H](Cc1c[nH]c2ccccc12)C(=O)O)[C@@H](C)O [M5–19],–,–,–,> 45,13.2
CC[C@H](C)[C@H](NC(=O)[C@H](CCCCN)NC(=O)[C@H](CCC(N)=O)NC(=O)[C@H](CC(C)C)NC(=O)[C@H](CCC(N)=O)NC(=O)[C@H](CCCNC(=N)N)NC(=O)[C@H](CCC(=O)O)NC(=O)CN)C(=O)N[C@@H](CCC(=O)O)C(=O)N[C@@H](CCCNC(=N)N)C(=O)N[C@@H](Cc1c[nH]c2ccccc12)C(=O)N[C@@H](Cc1ccccc1)C(=O)N[C@H](C(=O)N[C@@H](CCCNC(=N)N)C(=O)N[C@@H](CC(N)=O)C(=O)O)C(C)C [M25–39],–,–,–,13.2,> 45
CC(C)C[C@H](NC(=O)[C@@H](NC(=O)[C@H](C)NC(=O)[C@H](CC(N)=O)NC(=O)[C@H](Cc1ccc(O)cc1)NC(=O)[C@@H](N)CS)C(C)C)C(=O)N[C@H](C(=O)N[C@@H](Cc1c[nH]cn1)C(=O)N[C@H](C(=O)O)C(C)C)[C@@H](C)O [E60–68] (H-CYNAVLTHV-OH),> 70,0.001,> 70,–,–
CC(C)C[C@H](NC(=O)[C@H](C)NC(=O)[C@@H](NC(=O)[C@@H](NC(=O)[C@H](C)NC(=O)[C@H](Cc1ccccc1)NC(=O)[C@H](Cc1ccccc1)NC(=O)[C@@H]1CCCN1C(=O)[C@H](CC(N)=O)NC(=O)[C@H](CCCNC(=N)N)NC(=O)[C@@H](NC(=O)[C@H](Cc1ccccc1)NC(=O)[C@H](Cc1c[nH]c2ccccc12)NC(=O)[C@H](CCCNC(=N)N)NC(=O)[C@@H](N)CCC(=O)O)C(C)C)C(C)C)[C@@H](C)O)C(=O)O [M33–47],–,–,–,2.28,0.0073
CC[C@H](C)[C@H](NC(=O)[C@H](CCCCN)NC(=O)[C@H](CCC(N)=O)NC(=O)[C@H](CC(C)C)NC(=O)[C@H](CCC(N)=O)NC(=O)[C@H](CCCNC(=N)N)NC(=O)[C@H](CCC(=O)O)NC(=O)CNC(=O)[C@H](CCSC)NC(=O)[C@H](CCCNC(=N)N)NC(=O)CNC(=O)[C@@H](N)[C@@H](C)O)C(=O)N[C@@H](CCC(=O)O)C(=O)N[C@@H](CCCNC(=N)N)C(=O)N[C@@H](Cc1c[nH]c2ccccc12)C(=O)O [M21–35],–,–,–,> 45,42.5
CC[C@H](C)[C@H](NC(=O)[C@@H](NC(=O)[C@H](CC(C)C)NC(=O)[C@H](C)NC(=O)[C@@H](NC(=O)[C@@H](NC(=O)[C@H](C)NC(=O)[C@H](Cc1ccccc1)NC(=O)[C@H](Cc1ccccc1)NC(=O)[C@@H]1CCCN1C(=O)[C@H](CC(N)=O)NC(=O)[C@H](CCCNC(=N)N)NC(=O)[C@@H](N)C(C)C)C(C)C)[C@@H](C)O)[C@@H](C)O)C(=O)N[C@@H](C)C(=O)N[C@@H](Cc1ccc(O)cc1)C(=O)O [M37–51],–,–,–,1.92,0.04
CC[C@H](C)[C@H](N)C(=O)N1CCC[C@H]1C(=O)N[C@H](C(=O)N[C@H](C(=O)N[C@H](C(=O)N[C@@H](C)C(=O)N[C@@H](CC(=O)O)C(=O)N[C@@H](CC(=O)O)C(=O)N[C@@H](CC(C)C)C(=O)O)C(C)C)[C@@H](C)CC)C(C)C [E332–340] (H-IPVIVADDL-OH),0.056,33,> 70,–,–

# — PMC2615555 (Virology, 2008)
